Data as given in patent publication US20090176773A1, “Non-Peptidic Inhibitors of AKAP/PKA Interaction” (FORSCHUNGSVERBUND BERLIN E.V., priority 2005, published 2009).
“Also recorded” adds a separate entry of the source.

Each compound was assayed on vasopressin (AVP)-dependent redistribution of the aquaporin-2 (AQP2) water channel in renal principal cells (IMCD cells) (assay: AVP-induced redistribution of AQP2 in primarily cultured IMCD cells (immunofluorescence, laser scanning microscope)). Settings: FIG. 18 and 21.
Assay type: cell-based, rat
Experimental: Initially, collecting duct cells from the inner medulla of rat kidneys (IMCD cells) can be stimulated with AVP in the presence or absence of the substances so as to stimulate AQP2 translocation. Thereafter, immunofluorescence staining can be performed, wherein the cells—following incubation—are fixed and made permeable. Using antibodies coupled to fluorescent dyes, the intracellular localization of AQP2 can subsequently be determined under a fluorescence microscope. In this way it is possible to investigate the influence of the substances on the presumably AKAP18delta-dependent translocation of AQP2.
Inhibition of the vasopressin (AVP)-dependent redistribution of the aquaporin-2 (AQP2) water channel in renal principal cells by the substances specified (see Table B; concentrations of inhibitors in μM). Primarily cultured principal cells from the inner medulla of rat kidneys (IMCD cells) represent a model for the AVP-induced translocation of AQP2. Said redistribution is the molecular basis of AVP-induced water reabsorption in the kidneys. AQP2 was detected by means of a specific antiserum and Cy3-labelled secondary antibodies in untreated cells (control) and in cells treated with AVP or substances, using a laser scanning microscope (Tamma et al., 2003; Henn et al., 2004).
Effect of the low-molecular weight substances 18882, 990 and 990 derivatives SM61 and SM65 on AVP-induced redistribution of AQP2 in IMCD cells (see FIG. 18). The structures and chemical properties of the substances are illustrated in Tables A, B and C (concentrations of inhibitors in μM). AQP2 was detected by means of a specific antiserum and Cy3-labelled secondary antibodies in untreated cells (control) and in cells treated with AVP or substances, using a laser scanning microscope (Tamma et al., 2003; Henn et al., 2004). […] In contrast, the substances 18882 and the 990 derivative SM65 have no influence on AVP-induced AQP2 redistribution at the concentrations used.

Structure (SMILES) | Effect on AVP-induced redistribution of AQP2
CN/C(=N\Cc1cccc2ccccc12)SCc1cccc2ccccc12 [SM61] | inhibits the AVP-induced redistribution of AQP2
C/N=C(/NC1=NCCS1)SCc1cccc2ccccc12 [SM65] | no influence

The compounds below were run against AKAP18delta-RIIalpha interaction (GST-AKAP18delta binding to plate-bound PKA-RIIalpha) (Rattus norvegicus, UniProt P12368+Q6JP77) (assay: ELISA for quantitative detection of protein-protein binding between PKA-RIIalpha and GST-AKAP18delta (library screening, validation, IC50)). Settings: not given.
Source text: (§1) ELISA is a method wherein an antigen is detected with a specific antibody. Detection proceeds via an enzyme linked covalently with one of the binding partners, which enzyme catalyzes chromogen conversion.
(§2) Because one of the two binding partners is immobilized, removal of unbound antibodies or antigens is very easy. Detection proceeds via observing the intensity (I) of chemiluminescence using a photomultiplier in a special reading device (ELISA reader). The output of the measured values is in relative light units (RLU).
(§3) In the present case, the point was to investigate whether binding of one protein (PKA) to another (AKAP18delta-GST) would be inhibited by the presence of small organic molecules. A sandwich ELISA was therefore developed wherein the RIIalpha PKA subunit, to which AKAP proteins bind, was bound on 384-well microtiter plates (MTP).
(§4) The white color improves detection by reflection of the chemiluminescence being formed and simultaneously prevents illumination of neighboring wells. Free binding sites were blocked after binding (see below), and the second GST-AKAP18delta protein was added to […]. Subsequently, bound GST-AKAP18delta was quantified via antibodies and chemiluminescence. The principle of ELISA is illustrated in FIG. 4.
(§5) PBS (phosphate-buffered saline, pH 7.4) was used as buffer system to maintain a physiological pH value for the proteins used. The buffer was added with a mix of protease inhibitors and PMSF as non-specific protease inhibitor to delay protein degradation. In addition, DTT was employed to protect the proteins from oxidation.
(§6) The blocking solution additionally included 0.3% skim milk powder to saturate MTP non-specific binding sites with milk proteins included therein.
(§7) To adapt the binding curves to the measured values (see results), the one-site binding model was used as a basis, which model applies to binding of GST-AKAP18delta to RIIalpha. The corresponding formula is
(§8) The measured values for IC50 calculation were adapted to the one-site competition model. It was established that the bottom asymptote should be greater than 0.0 to rule out faulty adaptations with negative binding values. The formula used is
(§9) The FMP20000 substance library was used for screening, i.e., systematic, partially automated search for potential inhibitors of AKAP18delta-RIIalpha binding. […] The substances of the library had been selected according to specific criteria which also apply to previously known pharmacological active substances. Said criteria also include Lipinski's Rule (cf. discussion). To prepare an MTP for screening, each of 380 wells was filled with 20 μl of RIIalpha solution with a concentration of 0.75 ng/μl (in binding buffer), using an electronically controlled 24-channel pipette (Eppendorf). […] Following centrifugation of the MTPs (1 min at 2500×g), the MTPs were incubated at room temperature for at least 1 h. After removing the protein solution by tapping on a paper stack, non-specific binding sites were blocked with 100 μl of blocking solution/well for at least 1 h at room temperature.
(§10) After completion of the washing operation, solution residues possibly still present were tapped off on a paper stack.
(§11) In the next step, the MTPs were prepared for automated pipetting of the low-molecular weight substances. Each well was supplied with 10 μl of blocking solution or controls pipetted in accordance with the pipetting scheme (Table 1.2). […] The plates were briefly centrifuged.
(§12) Each of the control columns 1 and 24 received 0.5 μl of DMSO, so that the controls were added with the same amount of DMSO as the other samples.
(§13) Following centrifugation of the screening MTPs, AKAP18delta-GST (8 ng/μl in blocking solution) was added in accordance with the pipetting scheme (Table 2.2), centrifuged, and incubated for at least 30 min at room temperature.

Sequence of AKAP18delta-RIIalpha interaction (GST-AKAP18delta binding to plate-bound PKA-RIIalpha) (Rattus norvegicus, UniProt P12368+Q6JP77) (P12368 2-401): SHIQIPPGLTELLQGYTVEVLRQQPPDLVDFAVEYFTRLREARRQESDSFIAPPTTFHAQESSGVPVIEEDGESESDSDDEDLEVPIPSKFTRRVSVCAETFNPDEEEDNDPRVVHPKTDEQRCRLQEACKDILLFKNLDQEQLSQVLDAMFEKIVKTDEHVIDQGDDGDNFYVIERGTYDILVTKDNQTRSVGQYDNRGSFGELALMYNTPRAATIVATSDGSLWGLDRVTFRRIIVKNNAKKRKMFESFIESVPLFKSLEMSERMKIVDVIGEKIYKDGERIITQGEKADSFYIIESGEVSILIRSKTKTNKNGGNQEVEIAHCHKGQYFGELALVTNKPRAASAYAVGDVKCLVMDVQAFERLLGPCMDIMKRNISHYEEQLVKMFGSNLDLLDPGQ
Sequence of AKAP18delta-RIIalpha interaction (GST-AKAP18delta binding to plate-bound PKA-RIIalpha) (Rattus norvegicus, UniProt P12368+Q6JP77) (Q6JP77 whole entry): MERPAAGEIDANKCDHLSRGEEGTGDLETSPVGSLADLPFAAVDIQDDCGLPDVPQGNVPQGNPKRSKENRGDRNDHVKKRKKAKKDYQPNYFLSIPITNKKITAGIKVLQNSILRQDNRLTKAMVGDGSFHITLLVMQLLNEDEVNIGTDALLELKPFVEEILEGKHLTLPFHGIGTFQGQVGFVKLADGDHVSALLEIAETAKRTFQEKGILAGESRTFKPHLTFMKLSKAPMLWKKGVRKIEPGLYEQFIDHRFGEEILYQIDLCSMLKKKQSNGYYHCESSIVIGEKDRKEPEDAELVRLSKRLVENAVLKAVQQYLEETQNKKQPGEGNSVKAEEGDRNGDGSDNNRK

Structure (SMILES) | Ratio IC50 (comp./990) in Screening no. 3 | Ratio IC50 (comp./990) in Screening no. 1 | Ratio IC50 (comp./990) in Screening no. 2
CC(C)(C)/N=C(\NCc1ccccc1)SCc1cccc2ccccc12 [JG20] | 0.74 | – | –
CC(C)(C)/N=C(\NC1=NCCS1)SCc1cccc2ccccc12 [JG21] | 1.97 | – | –
c1ccc2c(CN/C(=N\C3CCCCC3)SCc3cccc4ccccc34)cccc2c1 [JG25] | 0.26 | – | –
CC(C)/N=C(\NCc1cccc2ccccc12)SCc1cccc2ccccc12 [JG26] | 0.87 | – | –
CC(C)(C)/N=C(\NCc1cccc2ccccc12)SCc1cccc2ccccc12 [JG27] | 1.03 | – | –
c1ccc(C/N=C(\NCc2cccc3ccccc23)SCc2cccc3ccccc23)cc1 [JG28] | 0.39 | – | –
CN/C(=N\c1cccc2cc3ccccc3cc12)SCc1cccc2ccccc12 [JG31] | 8.29 | – | –
C/N=C(/NC)SCc1cccc2ccccc12 [SM25] | 0.68 | 0.97 | 1.55
N=C(N)NCc1cccc2ccccc12 [SM51] | – | – | 88.35
S=C(NCCN1CCCCC1)Nc1cccc2ccccc12 [SM52] | – | – | 962.65
N=C(NCc1ccccc1)SCc1cccc2ccccc12 [SM53] | 1.13 | – | 3.20
CCNC(=N)SCc1cccc2ccccc12 [SM54] | – | – | 6.43
N=C(NN)SCc1cccc2ccccc12 [SM55] | – | – | 2.45
S=C(NCCN1CCCCC1)NCc1cccc2ccccc12 [SM56] | – | – | 592.04
CNC(=S)NCc1cccc2ccccc12 [SM57] | – | – | 4.16
S=C(NCc1cccc2ccccc12)NC1CCCCC1 [SM59] | – | – | 343.88
CN/C(=N\Cc1cccc2ccccc12)SCc1cccc2ccccc12 [SM61] | 0.32 | – | 0.16
c1ccc2c(C/N=C(\NC3CCCCC3)SCc3cccc4ccccc34)cccc2c1 [SM63] | 1.13 | – | 0.55
C/N=C(/NC1=NCCS1)SCc1cccc2ccccc12 [SM65] | 0.39 | – | 0.14
C/N=C(/NC1=NCCS1)SCc1ccc2ccccc2c1 [SM66] | – | – | 30.29
C/N=C(/NCCCc1ccccc1)SCc1cccc2ccccc12 [SM67] | 1.10 | – | 0.51
C/N=C(/NCCCc1ccccc1)SCc1ccc2ccccc2c1 [SM68] | – | – | 86.51
C/N=C(/NC(C)c1ccccc1)SCc1cccc2ccccc12 (centres unmarked) [SM69] | – | – | 1.76
C/N=C(/NC(C)c1ccccc1)SCc1ccc2ccccc2c1 (centres unmarked) [SM70] | – | – | 79.84
C/N=C(/NCc1ccccc1)SCc1cccc2ccccc12 [SM71] | 0.45 | – | 0.41
C/N=C(/NCc1ccccc1)SCc1ccc2ccccc2c1 [SM72] | – | – | 55.39

Same assay, conditions: Table C; screening no. 2; relative to substance 990

Structure (SMILES) | Ratio IC50 (comp./990) in Screening no. 2
CCNC(=S)NCc1cccc2ccccc12 [SM58] | 986.12

Same assay, conditions: Table C; screening no. 3

Structure (SMILES) | IC50 in Screening no. 3
C/N=C(\NCc1cccc2ccccc12)SCc1cccc2ccccc12 [JG23] | bad

Same assay, conditions: validation, FIG. 15, 50 nM GST-AKAP18delta

Structure (SMILES) | Concentration dependence of the inhibitory effect in validation (dilution series)
COc1ccc(CSC(=N)N)cc1Br [Compound 2348] | non-active
CC(C)C[C@H](NC(=O)[C@H](CCCNC(=N)N)NC(=O)[C@@H](NC(=O)[C@H](CC(C)C)NC(=O)[C@H](CCC(=O)O)NC(=O)[C@H](C)NC(=O)[C@H](CC(=O)O)NC(=O)[C@H](CCC(=O)O)NC(=O)[C@@H]1CCCN1)C(C)C)C(=O)N[C@@H](CO)C(=O)N[C@@H](CCCCN)C(=O)N[C@@H](CCCNC(=N)N)C(=O)N[C@@H](CC(C)C)C(=O)N[C@H](C(=O)N[C@@H](CCC(=O)O)C(=O)N[C@@H](CC(N)=O)C(=O)N[C@@H](C)C(=O)N[C@H](C(=O)N[C@@H](CCC(=O)O)C(=O)N[C@@H](CCCCN)C(=O)N[C@@H](C)C(=O)N[C@H](C(=O)N[C@@H](CCC(N)=O)C(=O)N[C@@H](CCC(N)=O)C(=O)N[C@@H](Cc1ccc(O)cc1)C(N)=O)C(C)C)C(C)C)C(C)C [Compound L314E, reference compound] | inhibition of binding in a concentration-dependent fashion

These compounds were tested against T1, AKAP18delta-RIIalpha interaction (GST-AKAP18delta binding to plate-bound PKA-RIIalpha) (UniProt P13861+Q6JP77) in the same assay as above. Settings: increasing peptide concentrations, FIG. 11.
T1 construct: made in house; host or cells: E. coli BL21(DE3), pGEX-4T3 vector (GST-AKAP18delta only)
Source text: as §1, §2, §3, §4, §5, §6, §7, §8, §9, §10, §11, §12, §13

T1 sequence (Q6JP77 whole entry): as above
T1 sequence (P13861 whole entry): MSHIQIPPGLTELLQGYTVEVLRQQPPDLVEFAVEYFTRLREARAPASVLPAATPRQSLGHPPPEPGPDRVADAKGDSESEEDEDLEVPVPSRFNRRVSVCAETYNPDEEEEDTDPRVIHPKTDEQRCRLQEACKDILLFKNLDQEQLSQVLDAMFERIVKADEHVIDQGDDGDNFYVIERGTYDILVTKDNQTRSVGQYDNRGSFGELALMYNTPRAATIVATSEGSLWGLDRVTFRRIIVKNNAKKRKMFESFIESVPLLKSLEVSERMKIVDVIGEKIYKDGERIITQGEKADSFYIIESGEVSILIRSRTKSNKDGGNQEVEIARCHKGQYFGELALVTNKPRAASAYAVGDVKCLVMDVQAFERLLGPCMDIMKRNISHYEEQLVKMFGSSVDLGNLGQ

Structure (SMILES) | Inhibition of GST-AKAP18delta binding to RIIalpha by peptides
CC(C)C[C@H](NC(=O)[C@H](CCCNC(=N)N)NC(=O)[C@@H](NC(=O)[C@H](CC(C)C)NC(=O)[C@H](CCC(=O)O)NC(=O)[C@H](C)NC(=O)[C@H](CC(=O)O)NC(=O)[C@H](CCC(=O)O)NC(=O)[C@@H]1CCCN1)C(C)C)C(=O)N[C@@H](CO)C(=O)N[C@@H](CCCCN)C(=O)N[C@@H](CCCNC(=N)N)C(=O)N[C@@H](CC(C)C)C(=O)N[C@H](C(=O)N[C@@H](CCC(=O)O)C(=O)N[C@@H](CC(N)=O)C(=O)N[C@@H](C)C(=O)N[C@H](C(=O)N[C@@H](CCC(=O)O)C(=O)N[C@@H](CCCCN)C(=O)N[C@@H](C)C(=O)N[C@H](C(=O)N[C@@H](CCC(N)=O)C(=O)N[C@@H](CCC(N)=O)C(=O)N[C@@H](Cc1ccc(O)cc1)C(N)=O)C(C)C)C(C)C)C(C)C [Compound L314E, reference compound] | stronger inhibition of binding; also recorded: competitive inhibition of binding
